Columns and labels:
Format in all cases: in vivo
Puccinia triticina = assay: Wheat brown rust (PUCCRT) disease control on wheat seedlings; conditions: for PUCCRT 1DP, LV activity at 125.1 g/H (% Control rating) / PUCCRT 3DC, LV activity at 125.1 g/H (% Control rating) / PUCCRT 1DP disease control rating, LV activity at 125.1 g/H / PUCCRT 3DC disease control rating, LV activity at 125.1 g/H: low volume application; for PUCCRT 1DP disease control rating, LV activity at 125.1 g/H: 1 day protectant; for PUCCRT 3DC disease control rating, LV activity at 125.1 g/H: 3 day curative
Phakopsora pachyrhizi = assay: Asian soybean rust (PHAKPA) disease control; conditions: 25 ppm; for PHAKPA disease control, 1DP: 1 Day Protectant; for PHAKPA disease control, 3DC: 3 Day Curative
Zymoseptoria tritici = assay: Leaf blotch of wheat (SEPTTR) disease control on wheat seedlings; conditions: for SEPTTR 1DP, LV activity at 125.1 g/H (% Control rating) / SEPTTR 3DC, LV activity at 125.1 g/H (% Control rating) / SEPTTR 1DP disease control rating, LV activity at 125.1 g/H / SEPTTR 3DC disease control rating, LV activity at 125.1 g/H: low volume application; for SEPTTR 1DP disease control rating, LV activity at 125.1 g/H: 1 day protectant; for SEPTTR 3DC disease control rating, LV activity at 125.1 g/H: 3 day curative

SMILES | PHAKPA disease control, 1DP (Phakopsora pachyrhizi) | PHAKPA disease control, 3DC (Phakopsora pachyrhizi) | PUCCRT 1DP, LV activity at 125.1 g/H (% Control rating) (Puccinia triticina; 1 Day Protectant) | PUCCRT 3DC, LV activity at 125.1 g/H (% Control rating) (Puccinia triticina; 3 Day Curative) | SEPTTR 1DP, LV activity at 125.1 g/H (% Control rating) (Zymoseptoria tritici; 1 Day Protectant) | SEPTTR 3DC, LV activity at 125.1 g/H (% Control rating) (Zymoseptoria tritici; 3 Day Curative) | PUCCRT 1DP disease control rating, LV activity at 125.1 g/H (Puccinia triticina) | PUCCRT 3DC disease control rating, LV activity at 125.1 g/H (Puccinia triticina) | SEPTTR 1DP disease control rating, LV activity at 125.1 g/H (Zymoseptoria tritici) | SEPTTR 3DC disease control rating, LV activity at 125.1 g/H (Zymoseptoria tritici) | also measured
C=CC(OCCC)C(Oc1ccccc1)C(C)OC(=O)C(C)NC(=O)c1nccc(OC)c1OCOC(C)=O (stereo not shown) [Cmpd 455] | A (> 80) | B (≤ 80) |  |  |  |  |  |  |  |  | PUCCRT 1DP disease control rating, HV activity (Puccinia triticina; HV application at 100 ppm, 1 Day Protectant, wheat brown rust): A (> 80); PUCCRT 3DC disease control rating, HV activity (Puccinia triticina; HV application at 100 ppm, 3 Day Curative, wheat brown rust): A (> 80); PUCCRT 1DP disease control rating, LV activity (Puccinia triticina; Low volume application at 125.1 g/H, 1 Day Protectant, wheat brown rust): A (> 80); PUCCRT 3DC disease control rating, LV activity (Puccinia triticina; Low volume application at 125.1 g/H, 3 Day Curative, wheat brown rust): A (> 80); SEPTTR 1DP disease control rating, HV activity (Zymoseptoria tritici; HV application at 100 ppm, 1 Day Protectant, wheat leaf blotch): A (> 80); SEPTTR 3DC disease control rating, HV activity (Zymoseptoria tritici; HV application at 100 ppm, 3 Day Curative, wheat leaf blotch): A (> 80); SEPTTR 1DP disease control rating, LV activity (Zymoseptoria tritici; Low volume application at 125.1 g/H, 1 Day Protectant, wheat leaf blotch): A (> 80); SEPTTR 3DC disease control rating, LV activity (Zymoseptoria tritici; Low volume application at 125.1 g/H, 3 Day Curative, wheat leaf blotch): A (> 80)
COc1ccnc(C(=O)N[C@@H](C)C(=O)O[C@@H](C)[C@H](Oc2cccc(F)c2)c2ccccc2)c1OC(C)=O [Cmpd 575] | A (> 80) | B (≤ 80) | A (> 80) | A (> 80) | A (> 80) | A (> 80) |  |  |  |  | 
COc1ccnc(C(=O)N[C@@H](C)C(=O)O[C@@H](C)[C@H](Oc2ccccc2)c2ccc(F)cc2)c1OC(C)=O [Cmpd 925] | A (> 80) | B (≤ 80) |  |  |  |  | A (> 80) | A (> 80) | A (> 80) | A (> 80) | 
COc1ccnc(C(=O)N[C@@H](C)C(=O)O[C@@H](C)[C@H](Oc2ccc(Cl)cc2)C(C)C)c1OC(C)=O [Cmpd 568] | A (> 80) | B (≤ 80) | A (> 80) | A (> 80) | B (≤ 80) | A (> 80) |  |  |  |  | 
CCC(CC)[C@@H](Oc1ccc(Cl)cc1)[C@H](C)OC(=O)[C@H](C)NC(=O)c1nccc(OC)c1OCOC(C)=O [Cmpd 589] | A (> 80) | B (≤ 80) | A (> 80) | A (> 80) | A (> 80) | A (> 80) |  |  |  |  | 
COc1ccnc(C(=O)N[C@@H](C)C(=O)O[C@@H](C)[C@H](Oc2cc(F)ccc2F)C(C)C)c1OCOC(C)=O [Cmpd 616] | A (> 80) | A (> 80) | A (> 80) | A (> 80) | B (≤ 80) | A (> 80) |  |  |  |  | 
CC[C@@H](CCC(C)C)[C@H](Oc1ccccc1)[C@H](C)OC(=O)[C@H](C)NC(=O)c1nccc(OC)c1OCOC(C)=O [Cmpd 502] | A (> 80) | B (≤ 80) | A (> 80) | A (> 80) | A (> 80) | A (> 80) |  |  |  |  | 
COc1ccnc(C(=O)N[C@@H](C)C(=O)O[C@@H](C)[C@H](Oc2cccc(Cl)c2)C(C)C)c1OCOC(C)=O [Cmpd 561] | A (> 80) | A (> 80) | A (> 80) | A (> 80) | A (> 80) | A (> 80) |  |  |  |  | 
CCC(CC)[C@@H](Oc1cccc(F)c1)[C@H](C)OC(=O)[C@H](C)NC(=O)c1nccc(OC)c1OC(C)=O [Cmpd 597] | A (> 80) | B (≤ 80) | A (> 80) | A (> 80) | A (> 80) | A (> 80) |  |  |  |  | 
CCCOC[C@@H](Oc1ccccc1)[C@H](C)OC(=O)[C@H](C)NC(=O)c1nccc(OC)c1OC(C)=O [Cmpd 474] | B (≤ 80) | B (≤ 80) | A (> 80) | A (> 80) | B (≤ 80) | A (> 80) |  |  |  |  | 
CCC(CC)[C@@H](Oc1cccc(Cl)c1)[C@H](C)OC(=O)[C@H](C)NC(=O)c1nccc(OC)c1OC(C)=O [Cmpd 599] | A (> 80) | A (> 80) | B (≤ 80) | A (> 80) | A (> 80) | A (> 80) |  |  |  |  | 
COc1ccnc(C(=O)N[C@@H](C)C(=O)O[C@@H](C)[C@H](OCC(C)C)c2ccccc2)c1OC(C)=O [Cmpd 879] | A (> 80) | B (≤ 80) |  |  |  |  | A (> 80) | A (> 80) | B (≤ 80) | A (> 80) | 
COc1cccc(OC(C2CCCC2)C(C)OC(=O)C(C)NC(=O)c2nccc(OC)c2OCOC(C)=O)c1 (stereo not shown) [Cmpd 917] | B (≤ 80) | B (≤ 80) |  |  |  |  | A (> 80) | A (> 80) | B (≤ 80) | A (> 80) | 
COc1ccnc(C(=O)N[C@@H](C)C(=O)O[C@@H](C)[C@H](Oc2ccc(C)cc2)C2CCCC2)c1OC(C)=O [Cmpd 923] | A (> 80) | B (≤ 80) |  |  |  |  | A (> 80) | A (> 80) | B (≤ 80) | B (≤ 80) | 
COc1ccnc(C(=O)NC(C)C(=O)OC(C)C(Oc2ccc(Cl)cc2)C2CCCC2)c1OCOC(C)=O (stereo not shown) [Cmpd 912] | B (≤ 80) | B (≤ 80) |  |  |  |  | A (> 80) | A (> 80) | A (> 80) | A (> 80) | 
CCC(CC)[C@H](Oc1cccc(F)c1)[C@H](C)OC(=O)[C@H](C)NC(=O)c1nccc(OC)c1OCOC(C)=O [Cmpd 668] | B (≤ 80) | B (≤ 80) |  |  |  |  | A (> 80) | A (> 80) | A (> 80) | A (> 80) | 
COc1ccnc(C(=O)N[C@@H](C)C(=O)O[C@@H](C)[C@H](Oc2ccc(Cl)cc2)C(C)C)c1OCOC(C)=O [Cmpd 563] | A (> 80) | B (≤ 80) | A (> 80) | A (> 80) | B (≤ 80) | A (> 80) |  |  |  |  | 
CCC(CC)[C@@H](Oc1ccccc1Cl)[C@H](C)OC(=O)[C@H](C)NC(=O)c1nccc(OC)c1OCOC(C)=O [Cmpd 593] | A (> 80) | B (≤ 80) | A (> 80) | A (> 80) | A (> 80) | A (> 80) |  |  |  |  | 
